Reference: patent US20220135663A1, “Method of treatment of Chronic Low Back Pain” (Pfizer Inc., priority 2019, published 2022)

Legend:
[1] = test system: adult patients with chronic low back pain; experiment: Study 1059: adverse events and adjudicated joint safety; type: in vivo, human
Text: For subjects who are identified with a possible or probable joint event (i.e., rapidly progressive osteoarthritis, subchondral insufficiency fractures, spontaneous osteonecrosis of the knee (SPONK), primary osteonecrosis or pathological fracture) and subjects undergoing total joint replacement for any reason, all images and other source documentation may be provided to the blinded Adjudication Committee for review and adjudication of the event. The Adjudication Committee's assessment of the event may represent the final classification of the event.
(§1) Patients were also required to have documented history of previous inadequate treatment response to at least 3 different categories of agents commonly used and generally considered effective for the treatment of chronic low back pain. Patients were required to discontinue all medications for the treatment of chronic low back pain during the primary efficacy assessment period (up to Week 16).

[2] = test system: adult patients with chronic low back pain; experiment: Study 1059, Phase 3: efficacy (LBPI, RMDQ) in chronic low back pain; type: in vivo, human; settings: 100-300 mg daily oral
Experimental: The Low Back Pain Intensity (LBPI) measure is assessed with an 11-point numeric rating scale ranging from 0 (no pain) to 10 (worst possible pain). The LBPI score can be the daily average LBPI score.
The Roland Morris Disability Questionnaire (RMDQ) is an index of how well subjects with low back pain are able to function with regard to daily activities (Roland M, Fairbank. The Roland-Morris Questionnaire and the Oswestry Disability Questionnaire. Spine. 2000; 25 (4)3115-3124). It is a low back pain-specific assessment of physical function with scores ranging from 0 to 24 (lower scores indicate better function).
as §1
Approximately 1800 patients were planned to be randomized initially in a 2:2:2:3 ratio to 1 of 4 following treatment groups:
1. Placebo administered SC at an 8-week interval plus placebo matching tramadol PR up to Week 16. At the Week 16 visit, patients in this group were switched in a blinded fashion in a 1:1 ratio to either tanezumab 5 mg or tanezumab 10 mg administered SC at an 8 week interval plus placebo matching tramadol PR to Week 56;
2. Tanezumab 5 mg SC administered at an 8-week interval plus placebo matching tramadol PR to Week 56;
3. Tanezumab 10 mg SC administered at an 8-week interval plus placebo matching tramadol PR to Week 56;
4. Oral tramadol PR 100-300 mg daily plus placebo administered SC at an 8-week interval to Week 56.
To achieve the initial randomization and intended re-randomization at Week 16 for placebo patients, a randomization ratio 1:1:2:2:3 for placebo→tanezumab 5 mg (at Week 16), placebo→tanezumab 10 mg (at Week 16), tanezumab 5 mg, tanezumab 10 mg, and tramadol PR was used at the beginning of the trial.
Table 2 summarizes the requirements for analgesic medication usage prior to Screening and the requirements for LBPI and Patient's Global Assessment (PGA) of CLBP. The current study enrolled patients who were more refractory to standard of care treatments for CLBP and had higher LBPI scores at Baseline.

[3] = test system: subjects with chronic low back pain (CLBP); experiment: Study 1063, Phase 3 in Japan: efficacy (LBPI, RMDQ) in chronic low back pain; type: in vivo, human; settings: 100 mg BID
Experimental: Patients received a total of seven SC injections, separated by 8 weeks (tanezumab or
Treatment groups were as follows: 1. […] Placebo for tanezumab SC and celecoxib BID.
The Intent-to-Treat (ITT) analysis set included all patients who were randomized and received at least one dose of SC study medication (either tanezumab or placebo). This analysis set was primary for all efficacy endpoints, which were analyzed according to randomization assignment, and was labeled as the ‘ITT population’.

[4] = test system: subjects with chronic low back pain (CLBP); experiment: Study 1063: adverse events and adjudicated joint safety
Experimental: This second study (termed “Study 1063) was a randomized, double-blind, active-controlled, multicenter, parallel-group Phase 3 study in Japan to evaluate the safety and efficacy of tanezumab when administered by SC injection for up to 56 weeks in subjects with chronic low back pain (CLBP). […] Patients were also required to be experiencing some benefit from their current stable dose regimen of oral therapy of NSAID (celecoxib 200 mg/day [100 mg BID], loxoprofen 120 to 180 mg/day or meloxicam 5 to 15 mg/day) treatment, but still required additional pain relief at screening. […] Patients with a diagnosis of osteoarthritis of the knee or hip as defined by the American College of Rheumatology combined clinical and radiographic criteria or who had Kellgren Lawrence Grade ≥2 radiographic evidence of hip osteoarthritis or Kellgren Lawrence Grade ≤3 radiographic evidence of knee osteoarthritis were excluded.
Treatment groups were as follows: 1. Tanezumab 5 mg SC and placebo for celecoxib BID; 2. Tanezumab 10 mg SC and placebo for celecoxib BID; 3. Placebo for tanezumab SC and celecoxib BID.
This study was designed with a total (post-randomization) duration of 80 weeks and consisted of three periods: (1) a Screening period (up to a maximum of 37 days), (2) a Double-blind Treatment period (56 weeks), and (3) a Safety Follow-up (24 weeks) Period (FIG. 8). The Screening Period included a Washout Period (lasting 2-32 days) if required, and an Initial Pain Assessment Period (IPAP) (5 days prior to Randomization/Baseline; minimum 4 days).
The Safety analysis set included all patients who received at least one dose of SC study treatment. This analysis set was primary for all safety endpoints, which were analyzed according to treatment received, and was labeled as the ‘Safety population’. In this study, the ITT and Safety analysis sets were identical.

[5] = test system: low back pain; settings: 500 mg BID; prior study; cited from earlier work
[6] = 100 mg BID, 56-week treatment period

With `COc1cccc(C2(O)CCCCC2CN(C)C)c1` (stereo not drawn) [Tramadol PR, tramadol, reference compound] the “incidence of composite joint safety endpoint” value ([1]; 100-300 mg daily oral) was 0.2%, the “observation-time adjusted rate of composite joint safety endpoint” value ([1]; 100-300 mg daily oral) was 1.9 events/1000 patient-years and the “patients with joint safety event adjudicated to RPOA Type 1” value ([1]; 100-300 mg daily oral) was 0.2%. The “patients with joint safety event adjudicated to RPOA Type 1, number” value ([1]; 100-300 mg daily oral) was 1 patients, the “patients with adjudicated event of RPOA” value ([1]; tramadol PR-treated patients) was 0.2% and the “patients with joint safety event requiring adjudication” value ([1]; tramadol PR-treated patients, 80-week observation period) was 0.7%. The “LBPI change from Baseline to Week 2, Difference vs. plc” value [2] was −0.19, the “LBPI change from Baseline to Week 16, LS Mean” value [2] was −2.81 and the “Proportion of patients with ≥50% improvement in LBPI at Week 16” value [2] was “(42.8) %”. For the same compound, the “RMDQ change from Baseline to Week 16, Difference vs. plc” value [2] was −0.26, the “RMDQ change from Baseline to Week 16, LS Mean” value [2] was −5.21 and the “percentage of patients achieving ≥30% improvement in LBPI at week 16” value [2] was 57.9%. For the same compound, the “≥30% improvement in LBPI at week 16, odds ratio versus placebo” value [2] was 1.08 and the “≥50% improvement in LBPI at Week 16, OR vs. plc” value [2] was 1.25.

For `Cc1ccc(-c2cc(C(F)(F)F)nn2-c2ccc(S(N)(=O)=O)cc2)cc1` [celecoxib], the “Proportion of Patients with ≥50% Improvement in LBPI at Week 16 (Mixed BOCF/LOCF)” value [3] was “(32.6%)”, the “Change from Baseline to Week 16 in LBPI (Multiple Imputation), LS Mean” value ([3]; ITT) was −2.28 and the “Change from Baseline to Week 16 in RMDQ (Multiple Imputation), LS Mean” value ([3]; ITT) was −3.84. The “frequency of adverse events of potential sympathetic dysfunction” value ([4]; 100 mg BID) was 7.6%, the “incidence of composite joint safety endpoint” value ([4]; 100 mg BID) was 0% and the “observation-time adjusted rate of composite joint safety endpoint” value ([4]; 100 mg BID) was 0 event/1000 patient-years. For the same compound, the “patients who met criteria for adjudication of a joint safety event, number” value ([4]; 100 mg BID) was 1 patient, the “incidence of serious adverse events” value [4, 6] was 2.2% and the “overall incidence of adverse events” value [4, 6] was 67.4%. The “Composite Joint Safety Endpoint, n (%)” value ([4]; 100 mg BID, during the study) was 0 n (%), the “Pathological Fracture, n (%)” value ([4]; 100 mg BID, during the study) was 0 n (%) and the “Patients analyzed by the Adjudication Committee, n (%)” value ([4]; 100 mg BID, during the study) was 1 (1.1%) n (%). For the same compound, the “Patients with Only Normal Progression of OA, n (%)” value ([4]; 100 mg BID, during the study) was 0 n (%), the “Patients with Other Joint Outcome, n (%)” value ([4]; 100 mg BID, during the study) was 1 (1.1%) n (%) and the “Primary Osteonecrosis, n (%)” value ([4]; 100 mg BID, during the study) was 0 n (%). The “RPOA type 1, n (%)” value ([4]; 100 mg BID, during the study) was 0 n (%), the “RPOA type 2, n (%)” value ([4]; 100 mg BID, during the study) was 0 n (%) and the “RPOA, n (%)” value ([4]; 100 mg BID, during the study) was 0 n (%). The “Subchondral Insufficiency Fracture, n (%)” value ([4]; 100 mg BID, during the study) was 0 n (%), the “Arthralgia, number (%) of patients” value ([4]; 100 mg BID, treatment period) was 6 (6.5) n (%) and the “Back pain, number (%) of patients” value ([4]; 100 mg BID, treatment period) was 4 (4.3) n (%). For the same compound, the “Contusion, number (%) of patients” value ([4]; 100 mg BID, treatment period) was 2 (2.2) n (%), the “Diarrhoea, number (%) of patients” value ([4]; 100 mg BID, treatment period) was 3 (3.3) n (%) and the “Discontinued from study due to Adverse Event, number (%) of patients” value ([4]; 100 mg BID, treatment period) was 0 n (%). The “Discontinued study drug due to Adverse Event and continued study, number (%) of patients” value ([4]; 100 mg BID, treatment period) was 4 (4.3) n (%), the “Discontinued study drug due to Adverse Event, number (%) of patients” value ([4]; 100 mg BID, treatment period) was 4 (4.3) n (%) and the “Fall, number (%) of patients” value ([4]; 100 mg BID, treatment period) was 3 (3.3) n (%). For the same compound, the “Gastroenteritis, number (%) of patients” value ([4]; 100 mg BID, treatment period) was 3 (3.3) n (%), the “Headache, number (%) of patients” value ([4]; 100 mg BID, treatment period) was 2 (2.2) n (%) and the “Hypertension, number (%) of patients” value ([4]; 100 mg BID, treatment period) was 3 (3.3) n (%). For the same compound, the “Hypoaesthesia, number (%) of patients” value ([4]; 100 mg BID, treatment period) was 3 (3.3) n (%), the “Intervertebral disc protrusion, number (%) of patients” value ([4]; 100 mg BID, treatment period) was 3 (3.3) n (%) and the “Musculoskeletal pain, number (%) of patients” value ([4]; 100 mg BID, treatment period) was 3 (3.3) n (%). For the same compound, the “Myalgia, number (%) of patients” value ([4]; 100 mg BID, treatment period) was 1 (1.1) n (%), the “Nasopharyngitis, number (%) of patients” value ([4]; 100 mg BID, treatment period) was 6 (6.5) n (%) and the “Pain in extremity, number (%) of patients” value ([4]; 100 mg BID, treatment period) was 3 (3.3) n (%). For the same compound, the “Pneumonia, number (%) of patients” value ([4]; 100 mg BID, treatment period) was 1 (1.1) n (%), the “Pyrexia, number (%) of patients” value ([4]; 100 mg BID, treatment period) was 4 (4.3) n (%) and the “Serious Adverse Event, number (%) of patients” value ([4]; 100 mg BID, treatment period) was 2 (2.2) n (%). The “Severe Adverse Event, number (%) of patients” value ([4]; 100 mg BID, treatment period) was 1 (1.1) n (%), the “frequency of adverse events of abnormal peripheral sensation” value ([4]; 100 mg BID, treatment period) was 4.3% and the “incidence of discontinuations from treatment due to an adverse event” value ([4]; 100 mg BID, treatment period) was 4.3%. The “Adverse Event, number (%) of patients” value ([4]; 100 mg BID, treatment period, all causalities) was 62 (67.4) n (%) and the “patients who met criteria for adjudication of joint safety outcome” value ([4]; celecoxib-treated patients, 80-week observation period) was 1.1%.

For `COc1ccc2cc([C@H](C)C(=O)O)ccc2c1` [naproxen], the “LBPI endpoints relative to placebo” value [5] is given as “significant differences relative to placebo” and the “RMDQ endpoint relative to placebo” value [5] is given as “not the RMDQ endpoint”.
